Experimental data taken from patent publication US10251831B2, “Extract for treating wrinkles and/or fine lines” (Avon Products, Inc., priority 2009, dated 2019).

Tests used:
paxillin mRNA = test: Stimulation of paxillin mRNA in vitro (QuantiGene multiplex branched DNA assay); format: cell-based; conditions: normal human dermal fibroblasts, 24 hours treatment, normalized to GAPDH
Experimental: Normal human dermal fibroblasts (Cascade Biologics) were cultured in 96-well tissue culture treated plates, with 200 μl DMEM in 10% serum per well, and incubated for 24 hours at 37° C. and 10% CO2. In some cases, normal human epidermal keratinocytes (Cascade Biologics) were cultured in 200 μl EpiLife medium (Cascade Biologics) per well, and incubated overnight at 37° C. and 5% CO2.
Stock solutions of candidate paxillin stimulators (test materials) were made in appropriate solvents (e.g., DMSO, water, ethanol, a 50:50 ethanol:water mixture) to give weight % as indicated in Table 1 below. Cells were treated with test material or a respective vehicle control diluted in growth medium for 24 hours in a humidified 37° C. incubator with 10% CO2. After incubation, growth medium from each plate was removed and 100 μl of lysis buffer was added to the wells and placed in 37° C. incubator with 5% CO2 for 30 minutes. At the end of incubation, the cells were collected in freezer plates and placed in a −80° C. freezer until analysis.
Changes in mRNA for paxillin in cell lysates after treatment were analysed using QuantiGene® multiplex assay (Panomics Inc. CA) that employs a branched DNA technology. This technology is a hybridization-based method of target-specific RNA quantification that amplifies a signal(s) rather than target RNA, using labelled DNA probe. Probes for Paxillin gene (ID: NM_005953) were designed and synthesized. Paxillin probes, reference probes PPIB and GAPDH, along with a set of other probes were used in this multiplex assay.
The probes used include capture extenders (CE), label extenders (LE), and blockers (BL). As described above, this arrangement provides a target sequence that is double-stranded, thereby improving hybridization efficiency. The CE, LE, and BL sequences used for identifying paxillin mRNA corresponded to SEQ ID NOS: 1, 2, and 3, respectively.
Appropriately diluted cell lysates were hybridized with the paxillin and reference probes in a hybridization plate in a Vortemp shaking incubator, for 18-22 hours at 54° C.±1° C. and 600 rpm. Once the paxillin and the reference mRNAs were captured, the unbound material was filtered using filter plates and washed three times with a wash buffer. Signal amplification was performed using two steps—first a 2.0 Pre-amplifier (Panomics Inc.) was added and incubated for 1 hour in the Vortemp shaking incubator at 54° C.±1° C. and 600 rpm. Unbound Pre-amplifier was filtered using a Filter plate and washed twice. Next the samples were exposed to 2.0 Amplifier (Panomics Inc.) and incubated, filtered, and washed as with the Pre-amplifier. Next the samples were hybridized with biotinylated labelled probe, and incubated for one hour at 54° C.±1° C. and 600 rpm. Samples were then filtered and washed as above. Finally, Streptavidin-conjugated Phycoerythrin (SAPE) working reagent was added and the mixture shaken for 30 minutes at room temperature covered in aluminium foil. Unbound SAPE was filtered and washed twice. SAPE wash buffer was added to each well with shaking for 2-5 minutes, and then readings were taken immediately using a Luminex machine.
Values for amounts of paxillin mRNA were determined along with those for the reference genes PPIB and GAPDH. Values were normalized to GAPDH to determine changes in paxillin mRNA after treatment. Percent increase in mRNA for paxillin was calculated in each case by comparing values after treatment with a candidate paxillin stimulator to values after treatment with the vehicle control.

Paxillin protein = test: Stimulation of paxillin protein in human skin biopsy (topical patch, immunohistochemistry); format: in vivo
From the text: Compositions comprising a paxillin stimulator were each tested on 21 subject volunteers. For each paxillin stimulator, the composition was topically applied via a patch attached to the back of a randomly selected forearm of each of 21 volunteers, and a vehicle control was similarly applied to the back of the volunteer's forearm. After 3 weeks, the human skin biopsies were taken from the treated skin of the various volunteers and subjected to immunohistochemisty preparation. […] Elevated protein level was determined for each treated subject by comparing to the vehicle control.

Q: CC/C=C\CCCCCO [cis-6-Nonenol, Cis-6-Nonenol] was tested. Which “% increase in Paxillin (relative to control)” value (paxillin mRNA; Weight % 0.001%) did it give?
A: 60.84%

Q: What about the “% Subjects Improved” value (Paxillin protein; percentage of subjects with elevated paxillin protein level vs vehicle control, topical patch on forearm, 3 weeks) of the same compound?
A: 71.4%

Q: And the “paxillin protein in human skin biopsies (antibody stain, FIG. 1)” value (Paxillin protein; representative photographs, compared to treatment with a control)?
A: increased paxillin protein

Q: And the “No. Showing Improvement” value (Paxillin protein; subjects with elevated paxillin protein level vs vehicle control, topical patch on forearm, 3 weeks, 21 subjects)?
A: 15

Q: Which “% increase in Paxillin (relative to control)” value (paxillin mRNA; Weight % 0.001%) does the source give for COc1ccc2cc1Oc1ccc(cc1)C[C@H]1c3cc(c(OC)cc3CCN1C)Oc1c(OC)c(OC)cc3c1[C@H](C2)N(C)CC3 [Tetrandine, 6,6′,7,12-Tetramethoxy-2,2′-dimethyl-berbaman] here?
A: 84.31%

Q: Which “% increase in Paxillin (relative to control)” value (paxillin mRNA; Weight % 0.00005%) does the source give for O=C(c1ccccc1)N1C[C@@H]2C[C@H](C1)c1ccc(-c3ccco3)c(=O)n1C2 [Compound of Formula V] here?
A: 28.52%

Q: With Cc1coc2c1C(=O)C(=O)c1c-2ccc2c1CCCC2(C)C [Tanshinone IIA, 1,6,6-trimethyl-8,9-dihydro-7H-naphtho[1,2-g][1]benzofuran-10,11-dione] as the compound, how does the “% increase in Paxillin (relative to control)” value (paxillin mRNA; Weight % 0.025%) read?
A: 188.31%

Q: For Oc1ccc(C2COc3cc(O)ccc3C2)cc1 (stereo not drawn) [Equol, 4′,7-isoflavandiol], which “% increase in Paxillin (relative to control)” value (paxillin mRNA; Weight % 0.0001%) is on record?
A: 61.46%

Q: What about the “% increase in Paxillin (relative to control)” value (paxillin mRNA; Weight % 0.001%) of the same compound?
A: 220.36%

Q: With CCCCC=CC=CC=CCCCCCCCC(=O)OCC=C(C)C=CC=C(C)C=CC1=C(C)CCCC1(C)C [Retinyl punicate] as the compound, how does the “% increase in Paxillin (relative to control)” value (paxillin mRNA; Weight % 0.01%) read?
A: 69.68%

Q: With Cc1ccc(C(C)C)cc1O [Carvacrol] as the compound, how does the “% increase in Paxillin (relative to control)” value (paxillin mRNA; Weight % 0.0001%) read?
A: 39.50%

Q: How did the “% increase in Paxillin (relative to control)” value (paxillin mRNA; Weight % 0.01%) turn out when CCCCCCCC/C=C\CCCCCCCC(=O)OC/C=C(C)/C=C/C=C(C)/C=C/C1=C(C)CCCC1(C)C [Retinyl oleate] was run?
A: 60.21%
